Data reported in patent US7807691B2, “Substituted N-arylpyrrolidines as selective androgen receptor modulators” (Eli Lilly and Company, priority 2005, dated 2010).

Columns and labels:
[1] = target: T1, human androgen receptor (AR) (Homo sapiens, UniProt P10275); test: C2C12 AR/ARE reporter assay; assay type: cell-based; conditions: average; for Emax: C2C12, read-out: C2C12 % Efficacy, versus maximum stimulation obtained with 10 nM methyltrienolone; for EC50: C2C12 EC50(nM), mouse myoblast C2C12 cells, luciferase reporter, 48 h
T1 construct: expressed in transfected cells; host or cells: mouse myoblast C2C12 cells, transiently co-transfected with FuGENE
T1 sequence (P10275 1-920): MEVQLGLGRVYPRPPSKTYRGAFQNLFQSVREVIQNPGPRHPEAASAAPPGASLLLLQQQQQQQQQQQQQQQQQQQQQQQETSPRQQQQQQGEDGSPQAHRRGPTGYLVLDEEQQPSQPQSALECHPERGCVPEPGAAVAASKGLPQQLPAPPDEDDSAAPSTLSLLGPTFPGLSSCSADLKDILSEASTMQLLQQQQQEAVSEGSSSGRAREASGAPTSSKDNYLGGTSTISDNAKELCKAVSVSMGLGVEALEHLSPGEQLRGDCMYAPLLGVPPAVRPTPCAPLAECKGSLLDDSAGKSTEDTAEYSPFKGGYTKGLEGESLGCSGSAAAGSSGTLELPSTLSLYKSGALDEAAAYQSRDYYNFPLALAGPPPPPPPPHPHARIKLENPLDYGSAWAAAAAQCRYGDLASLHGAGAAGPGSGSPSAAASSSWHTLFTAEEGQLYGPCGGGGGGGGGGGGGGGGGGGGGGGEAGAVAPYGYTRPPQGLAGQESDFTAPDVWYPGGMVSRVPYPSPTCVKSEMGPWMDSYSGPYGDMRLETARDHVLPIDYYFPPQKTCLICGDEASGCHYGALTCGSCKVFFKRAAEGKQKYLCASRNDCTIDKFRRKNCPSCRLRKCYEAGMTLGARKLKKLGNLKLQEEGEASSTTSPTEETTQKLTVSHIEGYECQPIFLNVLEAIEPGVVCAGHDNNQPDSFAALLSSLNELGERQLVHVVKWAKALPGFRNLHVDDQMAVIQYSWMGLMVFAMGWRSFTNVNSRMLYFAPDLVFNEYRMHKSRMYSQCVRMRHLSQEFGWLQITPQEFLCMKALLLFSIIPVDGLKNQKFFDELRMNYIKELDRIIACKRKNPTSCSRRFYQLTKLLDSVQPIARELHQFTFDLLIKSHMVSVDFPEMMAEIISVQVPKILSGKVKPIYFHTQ
Protocol: As an indicator of agonist activity in muscle tissue, the C2C12 AR/ARE reporter assay is performed. Briefly, mouse myoblast C2C12 cells are co-transfected using FuGENE™. […] Cells are transfected in T150 cm^2 flasks in DMEM media with 4% or 10% Fetal Bovine Serum (FBS). After a 5 hour incubation, transfected cells are trypsinized, plated in 96 well dishes in DMEM media containing 10% charcoal-stripped FBS, incubated for 2 h and then exposed to various concentrations of test compounds ranging from about 0.01 nM to 10 μM. After 48 h of incubations with compounds, cells are lysed and luciferase activity is determined using standard techniques. Data is fit to a 4 parameter-fit logistics to determine EC50 values. The % efficacy is determined versus maximum stimulation obtained with 10 nM methyltrienolone. […]

castrated male ICR mice = test: In vivo mouse model of efficacy and selectivity (castrated mice, tissue wet weights); conditions: for % Efficacy: (ANOVA, p < 0.05): Levator Ani muscle wet weight vs castrated vehicle-only control x100, 10 mg/kg/d, two weeks; for Seminal vesicle and/or prostate weight gain: tissue selectivity indicator, castrated mice
Protocol: Male ICR mice (8 weeks old) are castrated according to approved procedures (Taconic, N.Y.) and allowed to waste for eight weeks. Age-matched sham-operated mice are also prepared. (Sham-operated mice are animals that have been exposed to the same surgical procedures as castrated animals except their testes are not removed.) Animals are housed in a temperature-controlled room (24° C.) with a reversed 12 hour light/dark cycle (dark 10:00/22:00) and water and food are available ad libitum.
Test compounds are administered to the animals using conventional vehicles. For example, for oral dosing 1% Sodium Carboxymethylcellulose (CMC)+0.25% Tween 80 in sterile H2O can be used for oral formulation and 6% Ethyl-alcohol (EtOH)+94% cyclodexitrane (CDX) can be used for subcutaneous injections. Castrated mice treated with Testosteron Enanthate (TE) (10 mg/kg/d) are used as a treatment positive control whereas castrated mice treated only with vehicle are used as treatment negative control. In addition, sham-operated mice treated with vehicle only are used as control for the surgical method.
Test animals are dosed over a two week timeframe, orally or subcutaneously, with, for example, 0.3, 1, 3, 10 or 30 mg/kg/day of a compound of the present invention. After the two-week treatment, as an indicator of activity the wet weight of the Levator Ani muscle in the test group is determined and compared to the weight in the castrated, vehicle-only control group. The percent efficacy is then calculated as follows: (Wet weight in treatment group/Wet weight in control group)×100 As an indicator of tissue selective activity, the wet weight of the seminal vesicle from test animals is similarly compared to the weight of the seminal vesicles from the castrated, vehicle-only group. In addition, a comparison of the wet weight of the prostate glands from the drug-treated group, to the wet weight of the prostate glands removed from the castrated, vehicle-only group, may also be used as an indicator of tissue selective activity.
Table II (see below) provides % efficacy data for a select sample of exemplified compounds of the present invention in an animal model essentially as described above. Animal models of efficacy and selectivity similar to those described above can be readily designed and performed by the ordinarily skilled artisan, for example, Eisenberg and Gilbert, J Pharmacol Exp Ther. 1950, 99(1), 38-44, provides an alternative rat model that may be employed to show in vivo efficacy.)

[2] = target: T2, human AR (androgen receptor) (Homo sapiens, UniProt P10275); test: Steroid hormone nuclear receptor binding assay (AR binding); conditions: AR binding Ki (nM), 293-AR cell lysate, 3H-methyltrienolone competition
T2 construct: expressed in transfected cells; host or cells: 293 cells (293-AR lysate)
T2 sequence (P10275 1-920): T1 sequence (P10275 1-920)
Protocol: Cell lysates from 293 cells overexpressing human GR (glucocorticoid receptor), AR (androgen receptor), MR (mineralocorticoid receptor) or PR (progesterone receptor) are used for competition binding assays to determine Ki values for test compounds. Briefly, competition binding assays are run in a buffer containing 20 mM Hepes, pH 7.6, 0.2 mM EDTA, 75 mM NaCl, 1.5 mM MgCl2, 20% glycerol, 20 mM sodium molybdate, 0.2 mM DTT, 20 ug/ml aprotinin and 20 ug/ml leupeptin, using either 0.3 nM ^3H-dexamethasone for GR binding, 0.36 nM ^3H-methyltrienolone for AR binding, 0.25 nM ^3H-aldosterone for MR binding, or 0.29 nM ^3H-methyltrienolone for PR binding, and either 20 ug 293-GR lysate, 22 ug 293-AR lysate, 20 ug 293-MR lysate or 40 ug 293-PR lysate per well. Competing compounds are added at various concentrations ranging from about 0.01 nM to 10 μM. Non-specific binding is determined in the presence of 500 nM dexamethasone for GR binding, 500 nM aldosterone for MR binding, or 500 nM methyltrienolone for AR and PR binding. The binding reaction (140 μl) is incubated for overnight at 4° C., then 70 μl of cold charcoal-dextran buffer (containing per 50 ml of assay buffer, 0.75 g of charcoal and 0.25 g of dextran) is added to each reaction. Plates are mixed 8 minutes on an orbital shaker at 4° C. Plates are then centrifuged at 3,000 rpm at 4° C. for 10 minutes. An aliquot of 120 μl of the mix is transferred to another 96-well plate and 175 μl of Wallac Optiphase “Hisafe 3” scintillation fluid is added to each well. Plates are sealed and shaken vigorously on an orbital shaker. After an incubation of 2 hrs, plates are read in a Wallac Microbeta counter. The data is used to calculate an IC50 and % Inhibition at 10 μM. The Kd for ^3H-dexamethasone for GR binding, ^3H-methyltrienolone for AR binding, ^3H-aldosterone for MR binding, or ^3H-methyltrienolone for PR binding, is determined by saturation binding. The IC50 values for test compounds are converted to Ki using Cheng-Prusoff equation and the Kd determined by saturation binding assay.
Binding assay protocols for steroid hormone nuclear receptors similar to those described above can be readily designed by the ordinarily skilled artisan.

Structure (SMILES) | Emax [1] | EC50 [1] | % Efficacy: (ANOVA, p < 0.05) (castrated male ICR mice; sc) | Seminal vesicle and/or prostate weight gain (castrated male ICR mice) | Ki [2] | % Efficacy: (ANOVA, p < 0.05) (castrated male ICR mice; po)
Cc1c(N2CCCC2c2cccnc2)ccc(C#N)c1Cl (stereo not shown) [Example 9] | 90.7% | 2.6 nM | 186% | no weight gain | 1.3 nM | –
Cc1c(N2CCCC2c2ccc3c(c2)OCO3)ccc(C#N)c1Cl (stereo not shown) [Example 12] | 95.6% | 12.4 nM | – | no weight gain | 2.2 nM | 164%
Cc1nnc(C2CCCN2c2ccc(C#N)c(Cl)c2C)[nH]1 (stereo not shown) [Example 29, 2-chloro-3-methyl-4-[2-(5-methyl-4H-1,2,4-triazol-3-yl)pyrrolidin-1-yl]benzonitrile] | 83.9% | 378 nM | – | – | 58.9 nM | –
Cc1c(N2CCCC2c2nnc(N)o2)ccc(C#N)c1Cl (stereo not shown) [Example 30, 4-[2-(5-amino-1,3,4-oxadiazol-2-yl)pyrrolidin-1-yl]-2-chloro-3-methylbenzonitrile] | 95.7% | 37.9 nM | – | – | 18.7 nM | –
Cc1c(N2CC(O)CC2c2ccccc2)ccc(C#N)c1Cl (stereo not shown) [Example 31, 2-Chloro-3-methyl-4-(4-hydroxy-2-phenyl-pyrrolidin-1-yl)-benzonitrile] | 91.6% | 20.7 nM | – | – | 8.3 nM | –
